According to patent US11007192B2, “Use of 5-amino-2,3-dihydro-1,4-phthalazinedione in the treatment of chronic progressive multiple sclerosis” (METRIOPHARM AG, priority 2016, dated 2021):

Tests used:
inflammatory cytokines = conditions: mouse, in vivo
Procedure: (§1) Form II has earlier been tested for its effects on circulating levels of TNF-alpha and IL-6 2 and 4 hours after administration of a sublethal dose of LPS in CD1 mice. Therefore, Form II was administered i.p. at the dose of 0.5, 1.5 and 15.0 mg/kg 15 minutes before LPS challenge.

TNF-alpha = conditions: mouse, in vivo
Procedure: as §1

IL-6 = conditions: mouse, in vivo
Procedure: as §1

[1] = depending on compound, dosage and formulation; cited from earlier work
PPMS or SPMS = conditions: five years (60 months) after start; 200 mg then 300 mg twice a day; baseline EDSS 4.0
Procedure: EDSS determination is then performed every 6 months. […] Thus, the dosage is increased to 300 mg twice a day. […] No dosage adjustment is necessary. […] The next treatment round might vary in dosages used and duration of the treatments depending on disease progression.

TNFalpha = conditions: add on to standard therapy, acute phase RRMS patients; cited from earlier work
neuronal damage = conditions: low concentrations in vitro; cited from earlier work
[2] = tested on: adjuvant induced arthritis; conditions: rat, in vivo
Procedure: Rats were evaluated for arthritis daily by an observer unaware of the treatment according to a macroscopic scoring system. An arthritis index was calculated for each rat by summing the scores for the individual paws.

Structure (SMILES): Nc1cccc2c(=O)[nH][nH]c(=O)c12.[Na] [Form II, 5-amino-2,3-dihydro-1,4-phthalazinedione sodium salt]
- blood levels of inflammatory cytokines provoked by sublethal dose of LPS (inflammatory cytokines): significantly reduced
- Downregulation of TNF-alpha compared to vehicle (TNF-alpha): significant
- Downregulation of TNF-alpha significant compared to vehicle (TNF-alpha): not
- dose with best efficacy in down-regulation of TNF-alpha (TNF-alpha): 0.5 mg/kg
- Downregulation of IL-6 compared to vehicle (IL-6): significant
- Downregulation of IL-6 significant compared to vehicle (IL-6): not
- dose with best efficacy in down-regulation of IL-6 (IL-6): 0.5 mg/kg

Structure (SMILES): Nc1cccc2c(=O)[nH][nH]c(=O)c12 [5-amino-2,3-dihydro-1,4-phthalazinedione]
- half-life [1]: several hours

Structure (SMILES): Nc1cccc2c(=O)[nH][nH]c(=O)c12.[Na] [5-amino-2,3-dihydro-1,4-phthalazinedione sodium salt]
- disability progression (PPMS or SPMS): 0.5 EDSS points
- downregulation of TNFalpha (TNFalpha): promising
- neuronal damage in neurodegenerative diseases (neuronal damage): prevent neuronal damage

Structure (SMILES): Nc1cccc2c(=O)[nH][nH]c(=O)c12.[Na] [Form I, 5-amino-2,3-dihydro-1,4-phthalazinedione sodium salt]
- effective dosage confirmed (inflammatory cytokines; ip): 0.5 mg/kg
- effect when applied orally (inflammatory cytokines; po): there was an effect
- arthritic score [2]: significantly reduced
- most effective dose [2]: medium
- cumulative score of the disease ([2]; ip, 1 mg/kg): reduce significantly
